What was measured:
Format in all cases: cell-based, human
CD3-stimulated T cells = test: CD3 stimulation of T cells: metabolite titration curves, 3[H]-thymidin incorporation; settings: anti-CD3 antibody, 3 days
Text: • (a) Allogeneic T-cell response. DCs were infected with recombinant IDO-adeno-GFP (DC-IDO-GFP), IDO-adeno (DC-IDO) or with control adenoviruses (DC-adeno) at a MOI (multiplicity of infection) up to 500 for 2 days. Lymphocytes (PBMCs) were separated from peripheral blood of healthy donors by density gradient centrifugation and typed for HLA antigens. Only HLA-DR-different responder lymphocytes were used for DC-induced stimulation. Native DCs only, lymphocytes only, native DCs + allogeneic lymphocytes, DC-IDO-GFP + allogeneic lymphoytes, DC-IDO + allogeneic lymphoytes, DC-adeno + allogeneic lymphocytes (each time 10^5 DC + 10^5 lymphocytes in 0.2ml medium) were cultured in RPMI 1640 medium (Gibco BRL Life Technologies GmbH, Eggenstein, Germany) with 10% fetal calf serum (FCS) (final tryptophan concentration 5.25 mg/l = 25.69 uM) and Penicillin G/Streptomycin. […] In order to verify whether IDO expression or adenovirus infection harm the DCs, 10^5 cells were infected with IDO-adeno-GFP, IDO-adenovirus, or adenovirus only at a stepwise decreasing MOI (500, 250, 125, ........ 3.9) and cell viability was measured in FACS following double staining with 7-AAD and anti-CD83 antibody-PE. The percentage of dead cells never exceeded 30% for any MOI following IDO-adeno-GFP- or IDO-adeno-infection and 40% following adenovirus(control)-infection. Moreover, these values were not higher than those of native DCs cultured for the same period of time. The experiment was repeated using ethidium bromide or trypan blue staining with virtually the same result. […] Peripheral blood lymphocytes were cultured (10^5 cells/well) in RPMI 1640 (10% FCS) with anti CD3 monoclonal antibody (Ortho Diagnostic Systems Inc., Raritan, NJ) (final dilution 1:200). […] Kynurenine, 3-hydroxykynurenine, anthranilic acid, 3-hydroxyanthranilic acid, and quinolinic acid (Sigma-Aldrich Chemie GmbH, Taufkirchen, Germany)(for all substances purity>98%) were dissolved in RPMI 1640 and added to cell cultures at various concentrations. In an other experiment, to determine whether the metabolites have an additive effect, equal concentrations of the compounds were mixed and added to the cultures. […] Positive controls consisted of CD3-stimulated cells without metabolites and negative controls of unstimulated cells. • (d) Restimulation of suppressed T cells. Lymphocytes (10^5 cells/well) were cultured in RPMI 1640 (10% FCS) with anti-CD3 monoclonal antibody (final dilution 1:200) and kynurenine (dilution series). […] Controls consisted of cells prestimulated with anti-CD3 but not pretreated with kynurenine. In an other restimulation experiment lymphocytes were stimulated with allogeneic DCs as described, in the presence (47-1500µM) or absence of kynurenine. Control cultures contained DCs or lymphocytes only. After 5 days the cells were extensively washed, and restimulated with an identical number of DCs derived from the same donor or from third party donors. […] In order to define the concentration of tryptophan which reduces T- lymphocyte proliferation in our test system, 10^5 lymphocytes were incubated in tryptophan-free RPMI 1640 medium (Gibco BRL Life Technologies) with or without 10% FCS, stimulated with anti-CD3 monoclonal antibody, and various amounts (0-38µM) of tryptophan were added. Unimpaired proliferation was observed down to 0.30µM (medium with FCS) and 1 .20µM (without FCS). Complete inhibition was not obtained at any concentration (positive control 100% proliferation; maximal suppression in medium with FCS: approx. 66% and without FCS: approx. 33%). All cell cultures were done in triplicate.
All tests were carried out in triplicate and results are given as mean +standard deviation. […] Thereafter, the concentration of substance giving 50% proliferation was calculated by regression.

T cells = test: Detection of cell death: 7-AAD staining of anti-CD3 stimulated lymphocytes, FACScan; settings: anti-CD3, 3 days; 1501 µM kynurenine, 349µM 3-hydroxykynurenine, 510µM 3-hydroxyanthranilic acid, mixture 64 µM of each compound
Method: Lymphocytes were stimulated in culture with anti-CD3 monoclonal antibody (s. above) in the presence or absence (control) of kynurenine (1501µM), 3-hydroxyanthranilic acid (510µM), 3-hydroxykynurenine (348µM), or metabolite mixture (64µM kynurenine + 64µM 3-hydroxykynurenine + 64µM anthranilic acid + 64µM 3-hydroxyanthranilic acid + […] quinolinic acid). After 3 days the cells were washed and resuspended in PBS (10^6/ml). Thereafter, the cells (100µ1 suspension) were labeled with anti-CD3-FITC antibody (3 µl), stained with 7-AAD (5µl) for 15 min, and the percentage of 7-AAD-positive (dead) T cells was determined in a FACScan. In an other experiment T cells, B cells, NK-cells, or DCs were separated from PBMCs by magnetic beads or generated as described, and cultured (5x10^5 cells/ml) with a mixture of kynurenine metabolites (kynurenine + 3-hydroxykynurenine + anthranilic acid + 3-hydroxyanthranilic acid + quinolinic acid)(8, 16, or 32µM respectively for each compound). In one setting T cells were activated with anti-CD3 antibody. Cell death was measured daily for 5 days by 7-AAD staining and expressed in percentage of dead cells.

[1] = test system: T cells stimulated by allogeneic DCs; test: Allogeneic T-cell response: lymphocyte proliferation induced by allogeneic dendritic cells, 3[H]-thymidin incorporation; settings: 6 days
Text: DCs were generated from CD14-positive blood monocytes as previously described ("Schuler G. and N. Romani", 1997, Adv. Exp. Med. Biol. 417:7-13). Briefly, peripheral blood mononuclear cells of an HLA-typed healthy donor were separated by density gradient centrifugation and CD14-positive monocytes were isolated by adherence to culture dishes. Non-adherent cells were discarded. After culture of monocytes in the presence of human rGM-CSF (666 Units/ml) and rIL-4 (1000 Units/ml) for 7 days, rTNF-α (10 ng/ml) was added for an additional 2 days to induce maturation of DC. Characterization of DC phenotype was performed by flow cytometry using the following mouse monoclonal antibodies: anti-CD 14-FITC, anti-HLA-DR-FITC, anti-CD 1a-PE, anti-CD86-PE, and anti-CD83-PE (BD Biosciences Heidelberg, Germany). DCs were kept in liquid nitrogen until use.
• (a) Allogeneic T-cell response. DCs were infected with recombinant IDO-adeno-GFP (DC-IDO-GFP), IDO-adeno (DC-IDO) or with control adenoviruses (DC-adeno) at a MOI (multiplicity of infection) up to 500 for 2 days. […] After 5 days, ^3[H]-thymidin was added for 12hrs and the number of counts (counts per minute = cpm) determined in a (3-counter (Inotech Biosystems, Lansing, MI). In order to verify whether IDO expression or adenovirus infection harm the DCs, 10^5 cells were infected with IDO-adeno-GFP, IDO-adenovirus, or adenovirus only at a stepwise decreasing MOI (500, 250, 125, ........ 3.9) and cell viability was measured in FACS following double staining with 7-AAD and anti-CD83 antibody-PE. The percentage of dead cells never exceeded 30% for any MOI following IDO-adeno-GFP- or IDO-adeno-infection and 40% following adenovirus(control)-infection. […] After 2 days, cell proliferation was assessed by measuring ^3[H]-thymidin incorporation (cpm) as described. • (c) Tryptophan metabolite titration curves. […] After 2 days, ^3[H] thymidin was added and the number of counts recorded. […] After another 2 days, ^3[H] thymidin was added and cpm determined. […]

[2] = test system: T- lymphocyte proliferation; test: Tryptophan titration curve: proliferation of anti-CD3 stimulated lymphocytes in tryptophan-free medium; settings: for maximal suppression: positive control 100% proliferation
Text: • (a) Allogeneic T-cell response. DCs were infected with recombinant IDO-adeno-GFP (DC-IDO-GFP), IDO-adeno (DC-IDO) or with control adenoviruses (DC-adeno) at a MOI (multiplicity of infection) up to 500 for 2 days. Lymphocytes (PBMCs) were separated from peripheral blood of healthy donors by density gradient centrifugation and typed for HLA antigens. Only HLA-DR-different responder lymphocytes were used for DC-induced stimulation. Native DCs only, lymphocytes only, native DCs + allogeneic lymphocytes, DC-IDO-GFP + allogeneic lymphoytes, DC-IDO + allogeneic lymphoytes, DC-adeno + allogeneic lymphocytes (each time 10^5 DC + 10^5 lymphocytes in 0.2ml medium) were cultured in RPMI 1640 medium (Gibco BRL Life Technologies GmbH, Eggenstein, Germany) with 10% fetal calf serum (FCS) (final tryptophan concentration 5.25 mg/l = 25.69 uM) and Penicillin G/Streptomycin. After 5 days, ^3[H]-thymidin was added for 12hrs and the number of counts (counts per minute = cpm) determined in a (3-counter (Inotech Biosystems, Lansing, MI). In order to verify whether IDO expression or adenovirus infection harm the DCs, 10^5 cells were infected with IDO-adeno-GFP, IDO-adenovirus, or adenovirus only at a stepwise decreasing MOI (500, 250, 125, ........ 3.9) and cell viability was measured in FACS following double staining with 7-AAD and anti-CD83 antibody-PE. The percentage of dead cells never exceeded 30% for any MOI following IDO-adeno-GFP- or IDO-adeno-infection and 40% following adenovirus(control)-infection. Moreover, these values were not higher than those of native DCs cultured for the same period of time. […] After 2 days, cell proliferation was assessed by measuring ^3[H]-thymidin incorporation (cpm) as described. • (c) Tryptophan metabolite titration curves. […] After 2 days, ^3[H] thymidin was added and the number of counts recorded. […] After another 2 days, ^3[H] thymidin was added and cpm determined. […] 3[H] thymidin was added to all cultures and the number of counts (cpm) determined. • (e) Tryptophan titration curve. […]

Nc1c(O)cccc1C(=O)O [3-hydroxyanthranilic acid]
IC50 (CD3-stimulated T cells; Homo sapiens, T-cell, 72 h, single substance, read-out: I50 of proliferation of CD3-stimulated T cells): 96 µM | suppression of T cell response (in words) (CD3-stimulated T cells): strongly suppress T cells | dead (7-AAD-positive) T cells (in words) (T cells): virtually all cells died

Nc1ccccc1C(=O)C[C@@H](N)C(=O)O [D-kynurenine]
suppression of T cell response (in words) (CD3-stimulated T cells): The same effect was noted | inhibition of proliferation of T cells stimulated by allogeneic DCs (in words) [1]: The same effect was noted

NC(CC(=O)c1ccccc1NC=O)C(=O)O (centres unmarked) [N-formylkynurenine]
suppression of T cell response (in words) (CD3-stimulated T cells): Suppression of T-cell response can also be achieved

Nc1ccccc1C(=O)O [anthranilic acid]
suppression of T cell response (in words) (CD3-stimulated T cells): suppressive but at higher concentrations

O=C(O)c1cccnc1C(=O)O [quinolinic acid]
suppression of T cell response (in words) (CD3-stimulated T cells): suppressive but at higher concentrations

N[C@@H](Cc1c[nH]c2ccccc12)C(=O)O [tryptophan]
lowest tryptophan concentration with unimpaired proliferation ([2]; medium with FCS): 0.30 µM | maximal suppression ([2]; medium with FCS): approx. 66% | maximal suppression ([2]; medium without FCS): approx. 33%

— patent publication EP1369114A1, “Use of tryptophan metabolites as pharmaceutical agents” (Terness, Peter, Priv. Doz. Dr., priority 2002, dated 2003)
